Assay results published in patent US12161669B2, “Compositions and methods for cell targeting therapies” (UMC UTRECHT HOLDING B.V., priority 2017, dated 2024).

Columns and labels:
Assay type in all cases: cell-based
RhoB = test: Intracellular RhoB distribution in human dendritic cells; conditions: human dendritic cells treated with ABP
Experimental: For intracellular immunofluorescence staining of RhoB, cells were treated with pamidronate overnight (where indicated) and were allowed to attach onto coverslips precoated with poly-Llysine (Sigma-Aldrich). Cells were subsequently permeabilized with Permeabilizing solution 2 (BD), blocked with blocking serum (50% pooled normal human serum in PBS), and stained with a rabbit polyclonal anti-RhoB antibody (AbCam) followed by a secondary Goat anti-Rabbit IgG Alexa Fluor 488-conjugated antibody (Jackson ImmunoResearch). Cells were washed with blocking serum, fixed with 4% paraformaldehyde, stained with DAPI (where indicated), and mounted onto microscopy slides using Mowiol. Images were acquired using a Zeiss confocal laser scanning microscope LSM 700. Ratios between nuclear and extranuclear signal of RhoB was determined using Volocity software (PerkinElmer) or Image J software, where DAPI staining was used, when available, to mark nuclei.

RhoB and CD277 = test: Proximity ligation assay of RhoB and CD277 in EBV-LCL 48 cells; conditions: ABP pretreated vs medium
CD277 = test: dSTORM super-resolution imaging of CD277 clusters on HEK293FT cells; conditions: 100 uM pamidronate vs medium, DBSCAN
Experimental: HEK293FT cells were plated in eight-well Lab-Tek chambers to adhere and treated with 100 uM pamidronate overnight. For super-resolution imaging, cells were labeled with AF647-CD277 at RT. After labeling, cells were washed with PBS and fixed with 4% PFA and 0.2% gluteraldehyde for 1-2 h. Prior to super-resolution imaging, 200 μL of fresh SRB (Super-resolution buffer: 50 mM Tris, 10 mM NaCl, 10% glucose, 168.8 U/mL glucose oxidase, 1404 U/mL catalase, 10 mM cysteamine hydrochloride, pH 8.0) was added to the well. dSTORM imaging was performed using an inverted microscope (IX71; Olympus America) equipped with an oil-immersion objective 1.45-NA total internal reflection fluorescence objective (U-APO 150×; Olympus America). […]
dSTORM images were analyzed and reconstructed with custom-built MATLAB functions as described previously (Smith et al 2010, Nat Methods: Huang et al 2011, Biomed Opt Express). […]
Finally, in order to understand whether the enhanced recruitment of low affinity CTE-C13 TCR in the synapse was a result of changes in CD277 clustering due to the PAM treatment, direct stochastic optical reconstruction microscopy (dSTORM), a localization-based super-resolution imaging technique that provides ˜20 nm resolution was performed. […] To quantify the images, a density-based spatial clustering application (DBSCAN) was utilized. […]

NCCC(O)(P(=O)(O)O)P(=O)(O)O [pamidronate]
RhoB exclusion from the nucleus (RhoB): excluded from the nucleus in human
proximity of RhoB and CD277 (PLA signal) (RhoB and CD277): in close proximity
CD277 localization cluster size, density or number (CD277): did not dramatically change
